Test system: P12-Ichikawa
Assay: cell viability relative to DMSO control; higher = less cytotoxic
Conditions: 48 h
Outline: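 Viability values are per-plate percentages of DMSO wells, with background from cell-free wells. Library compounds in DMSO were pin-dosed, in an 11-point threefold series from 47 μM to 0.79 nM, onto NOMO1 or SEM (500 cells/well) or P12-Ichikawa (1000 cells/well) leukemia cells in 1536-well plates (5 μl). Those cells had been adapted for at least four passages in each medium, and CellTiter-Glo One luminescence was read after 48 h at 37°C.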

[1] = HPLM + 10% dialyzed FBS, 0.000781 µM
[2] = HPLM + 10% dialyzed FBS, 0.00234 µM
[3] = HPLM + 10% dialyzed FBS, 0.00702 µM
[4] = HPLM + 10% dialyzed FBS, 0.0211 µM
[5] = HPLM + 10% dialyzed FBS, 0.0632 µM
[6] = HPLM + 10% dialyzed FBS, 0.19 µM
[7] = HPLM + 10% dialyzed FBS, 0.569 µM
[8] = HPLM + 10% dialyzed FBS, 1.71 µM
[9] = HPLM + 10% dialyzed FBS, 5.12 µM
[10] = HPLM + 10% dialyzed FBS, 15.4 µM
[11] = HPLM + 10% dialyzed FBS, 46.1 µM
[12] = RPMI 5 mM glucose + 10% FBS, 0.000781 µM
[13] = RPMI 5 mM glucose + 10% FBS, 0.00234 µM
[14] = RPMI 5 mM glucose + 10% FBS, 0.00702 µM
[15] = RPMI 5 mM glucose + 10% FBS, 0.0211 µM
[16] = RPMI 5 mM glucose + 10% FBS, 0.0632 µM
[17] = RPMI 5 mM glucose + 10% FBS, 0.19 µM
[18] = RPMI 5 mM glucose + 10% FBS, 0.569 µM
[19] = RPMI 5 mM glucose + 10% FBS, 1.71 µM
[20] = RPMI 5 mM glucose + 10% FBS, 5.12 µM
[21] = RPMI 5 mM glucose + 10% FBS, 15.4 µM
[22] = RPMI 5 mM glucose + 10% FBS, 46.1 µM
[23] = RPMI 5 mM glucose + 10% dialyzed FBS, 0.000781 µM
[24] = RPMI 5 mM glucose + 10% dialyzed FBS, 0.00234 µM
[25] = RPMI 5 mM glucose + 10% dialyzed FBS, 0.00702 µM
[26] = RPMI 5 mM glucose + 10% dialyzed FBS, 0.0211 µM
[27] = RPMI 5 mM glucose + 10% dialyzed FBS, 0.0632 µM
[28] = RPMI 5 mM glucose + 10% dialyzed FBS, 0.19 µM
[29] = RPMI 5 mM glucose + 10% dialyzed FBS, 0.569 µM
[30] = RPMI 5 mM glucose + 10% dialyzed FBS, 1.71 µM
[31] = RPMI 5 mM glucose + 10% dialyzed FBS, 5.12 µM
[32] = RPMI 5 mM glucose + 10% dialyzed FBS, 15.4 µM
[33] = RPMI 5 mM glucose + 10% dialyzed FBS, 46.1 µM

Compound	cell viability [1]	cell viability [2]	cell viability [3]	cell viability [4]	cell viability [5]	cell viability [6]	cell viability [7]	cell viability [8]	cell viability [9]	cell viability [10]	cell viability [11]	cell viability [12]	cell viability [13]	cell viability [14]	cell viability [15]	cell viability [16]	cell viability [17]	cell viability [18]	cell viability [19]	cell viability [20]	cell viability [21]	cell viability [22]	cell viability [23]	cell viability [24]	cell viability [25]	cell viability [26]	cell viability [27]	cell viability [28]	cell viability [29]	cell viability [30]	cell viability [31]	cell viability [32]	cell viability [33]
CC[C@H]1OC(=O)[C@H](C)C(=O)[C@H](C)[C@@H](O[C@H]2O[C@H](C)C[C@H](N(C)C)[C@H]2O)[C@](C)(OC)C[C@@H](C)C(=O)[C@H](C)[C@H]2N(CCCCn3cnc(-c4cccnc4)c3)C(=O)O[C@]12C	102%	119%	98.3%	115%	120%	116%	99.1%	98.3%	104%	96.1%	96.1%	103%	109%	111%	115%	122%	104%	88.3%	89.5%	103%	105%	96.5%	111%	122%	140%	147%	130%	82%	63.3%	89.9%	114%	92.6%	97.5%
Oc1nc(-c2ccc(C(F)(F)F)cc2)nc2c1CSCC2	102%	109%	96.1%	102%	109%	108%	106%	98.1%	100%	91.5%	94%	101%	102%	100%	84.2%	107%	99.5%	108%	99%	87.7%	96.8%	85.4%	95.1%	90.9%	95.5%	86.3%	90.7%	94.7%	94.4%	99%	87.6%	87.8%	79.3%
CCOC(=O)\C1=C\[C@]2(CC)CCCN3CCC4=C([C@H]23)[N]1C5=C4C=CC=C5	98.7%	106%	107%	104%	111%	105%	110%	102%	115%	108%	101%	99.6%	118%	109%	110%	123%	111%	109%	116%	111%	114%	79.6%	89.5%	106%	109%	104%	107%	108%	113%	105%	105%	109%	65.7%
COc1cc2c(cc1OC)CN(CCc1ccc(NC(=O)c3cc(OC)c(OC)cc3NC(=O)c3cnc4ccccc4c3)cc1)CC2	114%	122%	115%	114%	110%	113%	111%	102%	65.6%	62.8%	44.4%	124%	112%	112%	120%	112%	118%	105%	92.7%	64%	54.1%	47.5%	114%	106%	116%	114%	113%	114%	99.4%	92%	56.4%	56.6%	46.5%
CNC(=O)c1ccc(Nc2cc(Nc3ccccc3[S+](=O)([O-])C(C)C)c3cc[nH]c3n2)nc1	98.8%	104%	107%	100%	110%	111%	113%	89.8%	12.5%	10.6%	22.3%	108%	108%	105%	115%	105%	113%	98.1%	66.7%	14.7%	12.6%	19.2%	109%	105%	111%	105%	116%	118%	107%	83.5%	26.7%	28.2%	29.6%
COC(=O)c1ccc2c(c1)NC(=O)/C2=C(\Nc1ccc(N(C)C(=O)CN2CCN(C)CC2)cc1)c1ccccc1	105%	109%	102%	101%	92.6%	101%	102%	102%	98.6%	95.9%	96.9%	106%	102%	96.1%	86%	101%	104%	101%	94%	102%	97.3%	89.3%	102%	104%	104%	90.2%	101%	99%	95.6%	93.4%	99.4%	86.2%	93.5%
COc1c(C)c2c(c(O)c1C/C=C(\C)CCC(=O)O)C(=O)OC2	108%	107%	111%	109%	113%	109%	103%	99.1%	90.5%	50.2%	38.2%	108%	110%	106%	104%	112%	104%	104%	85%	60.9%	36.7%	23%	103%	97.8%	95.3%	100%	104%	97.6%	103%	82%	64%	39.7%	28.7%
CC(C)(O)CC(=O)NCCn1ccc2ncnc(Nc3ccc(Oc4cccc(C(F)(F)F)c4)c(Cl)c3)c21	120%	115%	116%	112%	111%	109%	108%	102%	87.2%	69.5%	60.7%	110%	107%	121%	114%	121%	105%	107%	111%	93.3%	75.6%	52%	104%	113%	117%	109%	115%	113%	110%	106%	95.8%	69.1%	47.4%
O=C(CCCN1CCN(c2ccc(F)cc2)CC1)NC1c2ccccc2CSc2ccccc21 (stereo not drawn)	120%	125%	123%	119%	121%	120%	117%	119%	109%	102%	71.4%	126%	121%	119%	126%	131%	123%	136%	119%	97.4%	83.5%	55.1%	123%	122%	122%	120%	120%	115%	121%	110%	100%	77.7%	59%
Nc1c2c(nc3ccccc13)CCCC2	119%	119%	112%	111%	118%	120%	107%	68.4%	109%	110%	99%	118%	124%	128%	117%	120%	115%	124%	64.9%	109%	113%	89.2%	106%	117%	119%	118%	86.6%	109%	117%	84.3%	102%	102%	79.1%
CC12CC3CC(C)(C1)CC(N)(C3)C2	122%	119%	115%	115%	129%	130%	124%	122%	117%	89.8%	58.9%	109%	118%	117%	120%	138%	122%	131%	130%	123%	112%	78.4%	110%	115%	116%	117%	129%	117%	125%	127%	115%	109%	89.7%
C[C@]12CC[C@H]3[C@@H](CCC4=CC(=O)CC[C@@H]43)[C@@H]1CC[C@@H]2OC(=O)CCc1ccccc1	116%	115%	117%	115%	113%	121%	120%	120%	121%	119%	117%	–	–	–	–	–	–	–	–	–	–	–	104%	113%	112%	106%	115%	119%	113%	123%	112%	114%	104%
COc1cc[nH]c2ncc(C(=O)C(=O)N3CCN(C(=O)c4ccccc4)C[C@H]3C)c1-2	114%	112%	118%	111%	112%	109%	108%	101%	106%	103%	102%	114%	118%	119%	117%	117%	117%	122%	111%	107%	111%	97.5%	105%	109%	96.9%	110%	101%	99.1%	116%	103%	99.4%	99.5%	103%
N[C@@H]1CONC1=O	97.7%	108%	101%	105%	109%	106%	109%	112%	114%	100%	110%	95.6%	95.6%	106%	102%	111%	102%	104%	95.5%	102%	97.2%	103%	92.6%	95.9%	101%	101%	105%	106%	98.7%	102%	96.5%	101%	103%
COc1cc(C(=O)N2CC[C@@H](O)[C@@H](N)C2)cc2nc(-c3cc4ccccc4n3CC3CC3)n(C)c12	117%	116%	123%	121%	121%	44.3%	31%	27.5%	29%	23.8%	18.6%	119%	127%	123%	122%	137%	117%	111%	33.4%	25.9%	21.5%	11.2%	–	–	–	–	–	–	–	–	–	–	–

Reference: the supplement of paper PMC11451515
